≈ marks a conversion by molar mass, not a printed value.
Experiments:
Assay in all cases: MIC, broth microdilution
E. faecalis ATCC 29302 = type: cell-based; conditions: EF ATCC 29302
Experimental: (§1) Determination of Minimal Inhibitory Concentration (MIC) for Vancomycin, Teicoplanin and Tei-Analogs Versus Selected Strains
(§2) MICs were determined by the broth microdilution method. Specifically, 12 Colonies of the test strain were picked up from 18-24 hour agar cultures and freshly inoculated into broth mediums until reaching the turbidity of a 0.5 McFarland standard. The broth culture was adjusted with broth medium to approximately 1×10^8 CFUmL^−1. […] The plates were incubated in 37° C. for 18-24 hours and monitored for the wells of the positive control, where cells grew, and the wells of the negative control, where wells should not grow. The MIC value was determined for the concentration of a test compound, at which there was no visible growth in the well.

MRSA ATCC 700787 VRSA = type: cell-based, Staphylococcus aureus; conditions: MRSA ATCC 700787 VRSA
Experimental: as §1, §2

MRSA ATCC BAA-39 = type: cell-based, Staphylococcus aureus; conditions: MRSA ATCC BAA-39
Experimental: as §1, §2

MRSA ATCC 700789 VRSA = type: cell-based, Staphylococcus aureus; conditions: MRSA ATCC 700789 VRSA
Experimental: as §1, §2

MRSA ATCC 700698 hVISA = type: cell-based, Staphylococcus aureus; conditions: MRSA ATCC 700698 hVISA
Experimental: as §1, §2

MRSA ATCC BAA-44 = type: cell-based, Staphylococcus aureus; conditions: MRSA ATCC BAA-44
Experimental: as §1, §2

S. aureus ATCC 29213 = type: cell-based, Staphylococcus aureus; conditions: SA ATCC 29213
Experimental: as §1, §2

MRSA ATCC 43300 = type: cell-based, Staphylococcus aureus; conditions: MRSA ATCC 43300
Experimental: as §1, §2

MRSA ATCC BAA-38 = type: cell-based, Staphylococcus aureus; conditions: MRSA ATCC BAA-38
Experimental: as §1, §2

VRE ATCC 700802 (vanB) = type: cell-based, enterococci; conditions: VRE ATCC 700802 (vanB)
Experimental: as §1, §2

VRE ATCC 700425 (vanC) = type: cell-based, enterococci; conditions: VRE ATCC 700425 (vanC)
Experimental: as §1, §2

VRE ATCC 700221 (vanA) = type: cell-based, enterococci; conditions: VRE ATCC 700221 (vanA)
Experimental: as §1, §2

A. baumannii ATCC 19606 = type: cell-based, Acinetobacter baumannii; conditions: for MIC on AB: A. baumannii ATCC 19606
Experimental: as §1, §2

[1] = A. baumannii ATCC 19606, Table 3, first figure of cell
[2] = A. baumannii ATCC 19606, Table 3, second figure of cell

Row | SMILES | MIC (E. faecalis ATCC 29302) [µg/mL] | MIC (MRSA ATCC 700787 VRSA) [µg/mL] | MIC (MRSA ATCC BAA-39) [µg/mL] | MIC (MRSA ATCC 700789 VRSA) [µg/mL] | MIC (MRSA ATCC 700698 hVISA) [µg/mL] | MIC (MRSA ATCC BAA-44) [µg/mL] | MIC (S. aureus ATCC 29213) [µg/mL] | MIC (MRSA ATCC 43300) [µg/mL] | MIC (MRSA ATCC BAA-38) [µg/mL] | MIC (VRE ATCC 700802 (vanB)) [µg/mL] | MIC (VRE ATCC 700425 (vanC)) [µg/mL] | MIC (VRE ATCC 700221 (vanA)) [µg/mL] | MIC (A. baumannii ATCC 19606; [1]) [µM] | MIC (A. baumannii ATCC 19606; [2]) [µg/mL] | MIC on AB (A. baumannii ATCC 19606) [µg/mL]
1 | CCCCCCCC(=O)NC1C(OC2c3ccc(c(Cl)c3)Oc3cc4cc(c3O)Oc3ccc(cc3Cl)CC3NC(=O)C(N)c5ccc(O)c(c5)Oc5cc(O)cc(c5)C(NC3=O)C(=O)NC4C(=O)NC3C(=O)NC2C(=O)NC(C(=O)O)c2cc(O)cc(OC4OC(CO)C(O)C(O)C4O)c2-c2cc3ccc2O)OC(CO)C(O)C1O (stereo not drawn) [Compound 26] | 0.5 (≈ 0.303 µM) | 0.5 (≈ 0.303 µM) | 0.016 (≈ 0.00971 µM) | 0.5 (≈ 0.303 µM) | 0.031 (≈ 0.0188 µM) | 0.016 (≈ 0.00971 µM) | 0.016 (≈ 0.00971 µM) | 0.125 (≈ 0.0758 µM) | 0.125 (≈ 0.0758 µM) | 1 (≈ 0.607 µM) | 1 (≈ 0.607 µM) | >16 | – | – | –
2 | CN(C)[C@H]1C(=O)N[C@@H]2Cc3ccc(c(Cl)c3)Oc3cc4cc(c3O)Oc3ccc(cc3Cl)[C@@H](O[C@@H]3O[C@H](CO)[C@@H](O)[C@H](O)[C@H]3NC(=O)CCCCCCCN)[C@@H]3NC(=O)[C@H](NC(=O)[C@@H]4NC(=O)[C@@H](NC2=O)c2cc(O)cc(c2)Oc2cc1ccc2O)c1ccc(O)c(c1)-c1c(O)cc(O)cc1[C@@H](C(=O)O)NC3=O [Compound 22] | 1 (≈ 0.654 µM) | 0.063 (≈ 0.0412 µM) | – | – | 0.125 (≈ 0.0817 µM) | – | 0.031 (≈ 0.0203 µM) | – | – | 1 (≈ 0.654 µM) | 2 (≈ 1.31 µM) | >16 | 25 | 38.19 | –
3 | N[C@H]1C(=O)N[C@@H]2Cc3ccc(c(Cl)c3)Oc3cc4cc(c3O)Oc3ccc(cc3Cl)[C@@H](O[C@@H]3O[C@H](CO)[C@@H](O)[C@H](O)[C@H]3NC(=O)CCCCCCCCCCCO)[C@@H]3NC(=O)[C@H](NC(=O)[C@@H]4NC(=O)[C@@H](NC2=O)c2cc(O)cc(c2)Oc2cc1ccc2O)c1ccc(O)c(c1)-c1c(O)cc(O)cc1[C@@H](C(=O)O)NC3=O [Compound 19] | 0.25 (≈ 0.16 µM) | 0.016 (≈ 0.0103 µM) | 0.016 (≈ 0.0103 µM) | 0.25 (≈ 0.16 µM) | 0.016 (≈ 0.0103 µM) | 0.016 (≈ 0.0103 µM) | 0.016 (≈ 0.0103 µM) | 0.063 (≈ 0.0404 µM) | 0.031 (≈ 0.0199 µM) | 0.5 (≈ 0.321 µM) | 1 (≈ 0.642 µM) | >16 | – | – | –
4 | CN(C)[C@H]1C(=O)N[C@@H]2Cc3ccc(c(Cl)c3)Oc3cc4cc(c3O)Oc3ccc(cc3Cl)[C@@H](O[C@@H]3O[C@H](CO)[C@@H](O)[C@H](O)[C@H]3NC(=O)CCCCCCCNC(=N)NC(=N)N)[C@@H]3NC(=O)[C@H](NC(=O)[C@@H]4NC(=O)[C@@H](NC2=O)c2cc(O)cc(c2)Oc2cc1ccc2O)c1ccc(O)c(c1)-c1c(O)cc(O)cc1[C@@H](C(=O)O)NC3=O [Compound 25, r1,Me2-r6,C8-diguanidino-Tei] | – | – | – | – | – | – | – | – | – | – | – | – | 25 | 40.29 | 39.24 (≈ 24.3 µM)
5 | C#CCCC(=O)N[C@H]1[C@H](O[C@@H]2c3ccc(c(Cl)c3)Oc3cc4cc(c3O)Oc3ccc(cc3Cl)C[C@H]3NC(=O)[C@H](N)c5ccc(O)c(c5)Oc5cc(O)cc(c5)[C@H](NC3=O)C(=O)N[C@H]4C(=O)N[C@H]3C(=O)N[C@@H]2C(=O)N[C@H](C(=O)O)c2cc(O)cc(O)c2-c2cc3ccc2O)O[C@H](CO)[C@@H](O)[C@@H]1O [Compound 13] | 0.5 (≈ 0.347 µM) | 0.063 (≈ 0.0437 µM) | 0.063 (≈ 0.0437 µM) | 1 (≈ 0.694 µM) | 0.063 (≈ 0.0437 µM) | 0.031 (≈ 0.0215 µM) | 0.063 (≈ 0.0437 µM) | 0.125 (≈ 0.0868 µM) | 0.063 (≈ 0.0437 µM) | 4 (≈ 2.78 µM) | 4 (≈ 2.78 µM) | >16 | – | – | –
6 | N[C@H]1C(=O)N[C@@H]2Cc3ccc(c(Cl)c3)Oc3cc4cc(c3O)Oc3ccc(cc3Cl)[C@@H](O[C@@H]3O[C@H](CO)[C@@H](O)[C@H](O)[C@H]3NC(=O)CCc3ccccc3)[C@@H]3NC(=O)[C@H](NC(=O)[C@@H]4NC(=O)[C@@H](NC2=O)c2cc(O)cc(c2)Oc2cc1ccc2O)c1ccc(O)c(c1)-c1c(O)cc(O)cc1[C@@H](C(=O)O)NC3=O [Compound 15] | 0.25 (≈ 0.168 µM) | 0.031 (≈ 0.0208 µM) | 0.016 (≈ 0.0107 µM) | 0.5 (≈ 0.335 µM) | 0.016 (≈ 0.0107 µM) | 0.016 (≈ 0.0107 µM) | 0.031 (≈ 0.0208 µM) | 0.031 (≈ 0.0208 µM) | 0.016 (≈ 0.0107 µM) | 0.5 (≈ 0.335 µM) | 1 (≈ 0.67 µM) | >16 | – | – | –
7 | CN(C)[C@H]1C(=O)N[C@@H]2Cc3ccc(c(Cl)c3)Oc3cc4cc(c3O)Oc3ccc(cc3Cl)[C@@H](O[C@@H]3O[C@H](CO)[C@@H](O)[C@H](O)[C@H]3NC(=O)CCCCCCCO)[C@@H]3NC(=O)[C@H](NC(=O)[C@@H]4NC(=O)[C@@H](NC2=O)c2cc(O)cc(c2)Oc2cc1ccc2O)c1ccc(O)c(c1)-c1c(O)cc(O)cc1[C@@H](C(=O)O)NC3=O [Compound 21] | 1 (≈ 0.653 µM) | 0.125 (≈ 0.0817 µM) | – | – | 0.063 (≈ 0.0412 µM) | – | 0.125 (≈ 0.0817 µM) | – | – | 8 (≈ 5.23 µM) | 8 (≈ 5.23 µM) | >16 | 100 | 152.84 | 152.84 (≈ 99.9 µM)
8 | NCCC[C@H](N)CC(=O)N[C@@H]1[C@H](O)[C@@H](OC(N)=O)[C@@H](CO)O[C@H]1NC1=N[C@@H]2C(=O)NC[C@@H](O)[C@H]2N1 [streptothricin F, reference compound] | – | – | – | – | – | – | – | – | – | – | – | – | 12.5 | 6.28 | –
9 | CN(C)[C@H]1C(=O)N[C@@H]2Cc3ccc(c(Cl)c3)Oc3cc4cc(c3O)Oc3ccc(cc3Cl)[C@@H](O[C@@H]3O[C@H](CO)[C@@H](O)[C@H](O)[C@H]3NC(=O)CCCCCCC[N+](C)(C)C)[C@@H]3NC(=O)[C@H](NC(=O)[C@@H]4NC(=O)[C@@H](NC2=O)c2cc(O)cc(c2)Oc2cc1ccc2O)c1ccc(O)c(c1)-c1c(O)cc(O)cc1[C@@H](C(=O)O)NC3=O [Compound 23] | 0.25 | 0.031 | – | – | 0.031 | – | 0.031 | – | – | 1 | 2 | >16 | 50 | 78.52 | 78.52
10 | CC(=O)NC1C(OC2c3ccc(c(Cl)c3)Oc3cc4cc(c3OC3OC(CO)C(O)C(O)C3NC(=O)CCCCCCCNC(=N)N)Oc3ccc(cc3Cl)CC3NC(=O)C(N(C)C)c5ccc(O)c(c5)Oc5cc(O)cc(c5)C(NC3=O)C(=O)NC4C(=O)NC3C(=O)NC2C(=O)NC(C(=O)O)c2cc(O)cc(OC4OC(CO)C(O)C(O)C4O)c2-c2cc3ccc2O)OC(CO)C(O)C1O (stereo not drawn) [Compound 27] | – | – | – | – | – | – | – | – | – | – | – | – | 50 | 96.73 | –
11 | N[C@H]1C(=O)N[C@@H]2Cc3ccc(c(Cl)c3)Oc3cc4cc(c3O)Oc3ccc(cc3Cl)[C@@H](O[C@@H]3O[C@H](CO)[C@@H](O)[C@H](O)[C@H]3NC(=O)CCCCCc3ccccc3)[C@@H]3NC(=O)[C@H](NC(=O)[C@@H]4NC(=O)[C@@H](NC2=O)c2cc(O)cc(c2)Oc2cc1ccc2O)c1ccc(O)c(c1)-c1c(O)cc(O)cc1[C@@H](C(=O)O)NC3=O [Compound 16] | 0.25 (≈ 0.163 µM) | 0.125 (≈ 0.0815 µM) | 0.063 (≈ 0.0411 µM) | 0.5 (≈ 0.326 µM) | 0.016 (≈ 0.0104 µM) | 0.016 (≈ 0.0104 µM) | 0.125 (≈ 0.0815 µM) | 0.063 (≈ 0.0411 µM) | 0.031 (≈ 0.0202 µM) | 0.25 (≈ 0.163 µM) | 1 (≈ 0.652 µM) | >16 | – | – | –
12 | CCCCCCCC(=O)N[C@H]1[C@H](O[C@@H]2c3ccc(c(Cl)c3)Oc3cc4cc(c3O)Oc3ccc(cc3Cl)C[C@H]3NC(=O)[C@H](N(C)C)c5ccc(O)c(c5)Oc5cc(O)cc(c5)[C@H](NC3=O)C(=O)N[C@H]4C(=O)N[C@H]3C(=O)N[C@@H]2C(=O)N[C@H](C(=O)O)c2cc(O)cc(O)c2-c2cc3ccc2O)O[C@H](CO)[C@@H](O)[C@@H]1O [Compound 20] | 0.25 (≈ 0.165 µM) | 0.016 (≈ 0.0106 µM) | 0.016 (≈ 0.0106 µM) | 0.5 (≈ 0.33 µM) | 0.016 (≈ 0.0106 µM) | 0.016 (≈ 0.0106 µM) | 0.016 (≈ 0.0106 µM) | 0.063 (≈ 0.0416 µM) | 0.016 (≈ 0.0106 µM) | 0.5 (≈ 0.33 µM) | 1 (≈ 0.66 µM) | >16 | – | – | –

From patent publication US11739122B2, “Glycopeptide antibiotic compounds, methods for producing the same, and uses thereof” (Academia Sinica, priority 2019, dated 2023)
